These results are taken from paper PMC13463089, “PA200 modulates immunoproteasome structure and activity” (Nature Communications, 2026).

Molecules are shown by their SMILES.

The target of experiment [1] is T1, i20S-PA200 complex (PA200 / PSME4 bound to the immunoproteasome) (Homo sapiens, UniProt Q14997).
T1 construct: recombinant purified human PA200, about 200 kDa, one or two copies per 20S; human i20S commercial (cryo-EM) or purified from HEK293-EBNA (activity); with Proteasome subunit beta type-8; Proteasome subunit beta type-9; Proteasome subunit beta type-10; Proteasome subunit alpha type-6; Proteasome subunit alpha type-2; Proteasome subunit alpha type-4; Proteasome subunit alpha type-7; Proteasome subunit alpha type-5; Proteasome subunit alpha type-1; Proteasome subunit alpha type-3; Proteasome subunit beta type-3; Proteasome subunit beta type-2; Proteasome subunit beta type-1; Proteasome subunit beta type-4
T1 sequence (Q14997 whole entry): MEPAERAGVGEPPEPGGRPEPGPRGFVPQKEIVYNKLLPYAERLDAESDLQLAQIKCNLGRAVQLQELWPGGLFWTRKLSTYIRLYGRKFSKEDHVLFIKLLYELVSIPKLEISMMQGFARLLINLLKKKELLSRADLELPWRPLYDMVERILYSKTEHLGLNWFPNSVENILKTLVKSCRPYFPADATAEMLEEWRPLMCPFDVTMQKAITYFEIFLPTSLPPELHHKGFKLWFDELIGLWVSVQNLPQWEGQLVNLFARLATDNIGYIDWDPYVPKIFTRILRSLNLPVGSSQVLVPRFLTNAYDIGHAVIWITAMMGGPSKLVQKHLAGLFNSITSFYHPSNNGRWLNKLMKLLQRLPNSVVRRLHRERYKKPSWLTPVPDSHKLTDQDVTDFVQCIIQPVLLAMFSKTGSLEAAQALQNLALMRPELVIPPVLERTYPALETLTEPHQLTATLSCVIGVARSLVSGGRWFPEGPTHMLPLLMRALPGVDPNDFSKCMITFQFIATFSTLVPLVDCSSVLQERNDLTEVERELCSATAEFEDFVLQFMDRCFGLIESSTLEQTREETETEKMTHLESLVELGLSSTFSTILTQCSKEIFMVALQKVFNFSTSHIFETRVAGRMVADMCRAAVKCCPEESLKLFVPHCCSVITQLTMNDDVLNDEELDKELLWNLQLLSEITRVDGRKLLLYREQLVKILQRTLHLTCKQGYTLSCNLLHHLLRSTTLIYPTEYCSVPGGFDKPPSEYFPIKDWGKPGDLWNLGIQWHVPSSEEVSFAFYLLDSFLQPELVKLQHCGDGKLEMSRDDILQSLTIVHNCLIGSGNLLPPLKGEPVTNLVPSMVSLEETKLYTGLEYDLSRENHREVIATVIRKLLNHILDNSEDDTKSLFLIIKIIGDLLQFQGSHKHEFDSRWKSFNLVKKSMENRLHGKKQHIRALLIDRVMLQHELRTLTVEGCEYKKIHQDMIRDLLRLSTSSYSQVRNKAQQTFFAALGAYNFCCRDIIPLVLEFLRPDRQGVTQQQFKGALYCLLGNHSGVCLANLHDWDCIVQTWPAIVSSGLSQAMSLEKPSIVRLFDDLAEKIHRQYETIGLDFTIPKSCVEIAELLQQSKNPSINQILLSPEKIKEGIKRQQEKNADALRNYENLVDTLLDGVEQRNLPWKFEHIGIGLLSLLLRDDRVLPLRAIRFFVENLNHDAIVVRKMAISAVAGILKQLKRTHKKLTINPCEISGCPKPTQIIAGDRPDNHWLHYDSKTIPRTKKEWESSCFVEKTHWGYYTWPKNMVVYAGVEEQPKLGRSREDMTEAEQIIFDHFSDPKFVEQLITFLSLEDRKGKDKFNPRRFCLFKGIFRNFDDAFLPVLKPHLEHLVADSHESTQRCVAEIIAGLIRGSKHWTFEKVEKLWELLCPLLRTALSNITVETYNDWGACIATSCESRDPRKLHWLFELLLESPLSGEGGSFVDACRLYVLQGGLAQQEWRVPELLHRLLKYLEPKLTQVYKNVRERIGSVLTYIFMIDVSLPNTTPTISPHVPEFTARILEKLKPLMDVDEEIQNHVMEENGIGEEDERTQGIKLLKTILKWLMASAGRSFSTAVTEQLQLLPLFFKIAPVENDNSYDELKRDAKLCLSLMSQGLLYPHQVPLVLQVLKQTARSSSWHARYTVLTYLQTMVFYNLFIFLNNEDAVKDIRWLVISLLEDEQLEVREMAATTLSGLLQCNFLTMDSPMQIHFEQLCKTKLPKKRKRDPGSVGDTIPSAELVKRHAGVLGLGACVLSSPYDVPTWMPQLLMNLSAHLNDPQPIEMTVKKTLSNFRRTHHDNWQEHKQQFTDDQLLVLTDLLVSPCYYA
T1 sequence (P28062 73-276 partner): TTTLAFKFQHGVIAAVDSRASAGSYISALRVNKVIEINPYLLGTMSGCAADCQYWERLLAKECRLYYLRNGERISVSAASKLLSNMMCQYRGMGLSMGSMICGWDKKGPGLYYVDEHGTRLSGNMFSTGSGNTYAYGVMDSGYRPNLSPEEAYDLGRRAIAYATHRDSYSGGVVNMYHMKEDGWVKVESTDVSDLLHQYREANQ
T1 sequence (P28065 21-219 partner): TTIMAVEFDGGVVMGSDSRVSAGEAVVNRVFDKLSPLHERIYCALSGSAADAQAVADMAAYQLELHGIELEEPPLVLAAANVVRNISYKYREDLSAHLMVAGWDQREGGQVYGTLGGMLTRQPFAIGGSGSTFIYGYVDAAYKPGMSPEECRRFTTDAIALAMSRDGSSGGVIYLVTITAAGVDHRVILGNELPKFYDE
T1 sequence (P40306 40-273 partner): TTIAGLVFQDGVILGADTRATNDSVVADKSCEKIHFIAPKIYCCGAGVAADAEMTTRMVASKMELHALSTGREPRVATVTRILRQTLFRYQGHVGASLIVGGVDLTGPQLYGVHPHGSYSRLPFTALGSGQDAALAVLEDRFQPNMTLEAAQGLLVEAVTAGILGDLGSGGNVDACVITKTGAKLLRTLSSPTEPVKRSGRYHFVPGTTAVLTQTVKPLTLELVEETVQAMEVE
Nature of the experiment: fluorogenic peptide assay of […] activity. It counts as biochemical. Particulars: PA200 21.5 nM preincubated with 70 uM IP6, i20S 1.5 nM; substrates LLVY, ANW, PAL, LRR; pH 7.6, 37 C; activator.

Experiment [2] addresses T2, s20S-PA200 complex (PA200 / PSME4 bound to the standard proteasome) (Homo sapiens, UniProt Q14997).
T2 construct: recombinant purified human PA200 mixed with purified human s20S; with Proteasome subunit beta type-5; Proteasome subunit beta type-6; Proteasome subunit beta type-7; Proteasome subunit alpha type-6; Proteasome subunit alpha type-2; Proteasome subunit alpha type-4; Proteasome subunit alpha type-7; Proteasome subunit alpha type-5; Proteasome subunit alpha type-1; Proteasome subunit alpha type-3; Proteasome subunit beta type-3; Proteasome subunit beta type-2; Proteasome subunit beta type-1; Proteasome subunit beta type-4
Nature of the experiment: fluorogenic peptide assay of […] activity. Conditions: PA200 21.5 nM preincubated with 70 uM IP6, s20S 1.5 nM; pH 7.6, 37 C. It counts as biochemical.

Experiment [3] deals with T1, i20S-PA200 complex (PA200 / PSME4 bound to the immunoproteasome). Nature of the experiment: cryo-EM structure ([…] and […] A). The format is binding. Conditions: two IP6 molecules in the two positively charged grooves of PA200; density assigned by analogy to s20S-PA200 structures.

T2 sequence (Q14997 whole entry): as the sequence (Q14997 whole entry) above
T2 sequence (P28074 60-263 partner): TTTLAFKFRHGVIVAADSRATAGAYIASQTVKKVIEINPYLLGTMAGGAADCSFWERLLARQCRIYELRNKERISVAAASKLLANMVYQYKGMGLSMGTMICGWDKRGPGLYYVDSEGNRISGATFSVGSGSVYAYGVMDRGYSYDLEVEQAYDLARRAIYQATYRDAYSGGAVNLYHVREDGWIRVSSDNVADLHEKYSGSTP
T2 sequence (P28072 35-239 partner): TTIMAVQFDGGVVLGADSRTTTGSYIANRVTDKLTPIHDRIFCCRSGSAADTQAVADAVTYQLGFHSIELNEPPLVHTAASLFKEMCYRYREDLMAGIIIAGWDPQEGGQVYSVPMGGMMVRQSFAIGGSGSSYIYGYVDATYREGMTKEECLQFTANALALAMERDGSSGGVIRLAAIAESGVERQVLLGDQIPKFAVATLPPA
T2 sequence (Q99436 44-277 partner): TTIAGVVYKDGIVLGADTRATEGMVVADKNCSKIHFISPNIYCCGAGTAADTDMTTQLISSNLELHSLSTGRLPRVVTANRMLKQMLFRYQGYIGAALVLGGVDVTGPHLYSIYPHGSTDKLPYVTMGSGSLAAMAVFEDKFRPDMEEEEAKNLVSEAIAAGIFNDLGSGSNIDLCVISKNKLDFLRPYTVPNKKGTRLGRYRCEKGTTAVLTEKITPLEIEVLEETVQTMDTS

For the molecule `O=P(O)(O)O[C@H]1[C@H](OP(=O)(O)O)[C@@H](OP(=O)(O)O)[C@H](OP(=O)(O)O)[C@@H](OP(=O)(O)O)[C@H]1OP(=O)(O)O` [IP6], the relative activity entry in experiment [1] was “strong increase of the three activities that are specific for the i20S”; in experiment [2], “Effect of phytic acid (IP6) on PA200-activated i20S (B, dark blue bars) and s20S”. In addition, the “cryo-EM structure (2.85 and 2.89 A)” value in experiment [3] is recorded as “we assigned these densities to two molecules of IP6”.
